Reference: patent publication US20240269238A1, “Therapeutic Regimens and Methods for Reducing Body Weight in a Subject with Fatty Liver Disease using a GLP-1R and GCGR Agonist” (Spitfire Pharma LLC, priority 2022, published 2024)

Experiments:
[1] = tested on: alanine aminotransferase (ALT); experiment: Phase 1 12-week NAFLD study (Example 1): serum ALT; assay type: in vivo, human; conditions: for ALT reduction: week 12; for decline in serum ALT levels: subjects with baseline serum ALT above 30 IU/L, 12 weeks
Description: (§1) Provided herein is disclosure of a Phase 1, multicenter, randomized, double-blind, placebo-controlled study to assess the effects of Pemvidutide (also termed herein as ALT-801), the safety of Pemvidutide and effects on hepatic fat fraction, anthropometric parameters, lipid metabolism, inflammatory markers and fibrosis markers in diabetic and non-diabetic (type 2 diabetes) overweight and obese (BMI 28.0 kg/m^2) subjects with NAFLD. This study was designed to assess changes in hepatic fat fraction by MRI-PDFF (magnetic resonance imaging-proton density fat fraction) in diabetic and non-diabetic overweight and obese subjects with NAFLD after 12 weeks of ALT-801 treatment. The trial was conducted without adjunctive diet and exercise interventions. The study assessed changes in body weight, lipid metabolism, metabolic markers, and inflammatory markers and safety and tolerability of ALT-801 after 12 weeks of treatment. Subjects were stratified for the presence or absence of diabetes at baseline. Fibroscan and cT1 assessments evaluated changes in liver inflammatory and fibrotic activity at the end of 12 weeks of treatment.
(§2) The study, described in this example, was carried out in 94 subjects overweight and obese (body mass index [BMI] ≥28.0 kg/m^2) Type 2 diabetic and non-diabetic subjects with nonalcoholic fatty liver disease (NAFLD) over about 4.5 months, including up to a 35-day screening period, and 85-day treatment period and a 25-day follow-up period, with treatment with ALT-801 (a composition comprising SEQ ID NO.: 1, “study medication”) or placebo administered by subcutaneous (SC) injection once weekly for up to twelve (12) doses.
The safety objective of this study was to assess the safety and tolerability of ALT-801 in 18-65 years old subjects with NAFLD (NAFLD without significant fibrosis, defined as FibroScan® controlled attenuation parameter (CAP) ≥280 dB/m and liver stiffness measurement (LSM)<10 kPa (i.e., indicating the absence of significant fibrosis), magnetic resonance imaging derived proton density fat fraction (MRI-PDFF) ≥10%), hemoglobin Alc (HbAlc) of less than 9.5%, and alanine aminotransferase (ALT) or aspartate aminotransferase (AST) values of ≤[…]. The pharmacodynamic (PD) objectives of this study were to evaluate the effects of ALT-801 on hepatic fat fraction, anthropometric parameters, lipid metabolism, metabolic markers, inflammatory markers, fibrosis markers, and lipotoxicity markers. The pharmacokinetic (PK) objectives of this study were to evaluate the effects of ALT-801 and metformin exposure (drug interactions) on the subjects (e.g., ALT-801 and metformin concentrations in blood over time).
After providing informed consent, subjects underwent a screening period of up to 35 days. Subjects were instructed on how to maintain their normal diets, alcohol consumption and physical activities and not to start any new diets, supplements, or exercise programs at any time while participating in the study. Counseling was provided on diet and exercise on the Day 1 visit and reinforced at subsequent visits. Study subjects were randomized 1:1:1:1 to one of the following treatment arms: 1) ALT-8011.2 mg SC once weekly for 12 weeks; 2) ALT-8011.8 mg SC once weekly for 12 weeks; 3) ALT-801 0.6 mg SC at week 1, 1.2 mg SC at week 2, 1.8 mg SC once weekly for 2 weeks (weeks 3 and 4), and 2.4 mg SC once weekly for weeks 5 through 12; or, 4) placebo SC once weekly for 12 weeks. Subjects were stratified by presence or absence of diabetes at baseline. Subjects in the treatment arm with a final therapeutic dose of 2.4 mg underwent a rapid 4-week dose escalation to improve tolerability and reduce the possibility of adverse events. […] See FIG. 7, second 2.4 mg column as compared to the first 2.4 mg column (this study). See WO 2022/125598. […]

Iron-corrected T1 (cT1) = experiment: Phase 1 12-week NAFLD study (Example 1): iron-corrected T1 (cT1) responder analysis; assay type: in vivo, human; conditions: week 12
Description: as §1, §2
After providing informed consent, subjects underwent a screening period of up to 35 days. Subjects were instructed on how to maintain their normal diets, alcohol consumption and physical activities and not to start any new diets, supplements, or exercise programs at any time while participating in the study. […]

CC[C@H](C)[C@H](NC(=O)[C@H](Cc1ccccc1)NC(=O)[C@H](CCC(=O)O)NC(=O)[C@@H]1CCCCNC(=O)CC[C@H](NC(=O)[C@H](CC(=O)O)NC(=O)[C@H](CC(C)C)NC(=O)[C@H](Cc2ccc(O)cc2)NC(=O)[C@H](CCCCN)NC(=O)[C@H](CO)NC(=O)[C@H](Cc2ccc(O)cc2)NC(=O)[C@H](CC(=O)O)NC(=O)[C@H](CO)NC(=O)[C@@H](NC(=O)[C@H](Cc2ccccc2)NC(=O)[C@@H](NC(=O)CNC(=O)[C@H](CCC(N)=O)NC(=O)C(C)(C)NC(=O)[C@@H](N)Cc2c[nH]cn2)[C@@H](C)O)[C@H](C)O)C(=O)N[C@@H](CCCCNC(=O)C2O[C@@H](OCCCCCCCCCCCCCCCCCC(=O)O)C(O)C(O)[C@@H]2O)C(=O)N[C@@H](C)C(=O)N[C@@H](C)C(=O)N1)C(=O)N[C@@H](CCC(N)=O)C(=O)N[C@@H](Cc1c[nH]c2ccccc12)C(=O)N[C@@H](CC(C)C)C(=O)N[C@@H](CC(C)C)C(=O)N[C@@H](CCC(N)=O)C(=O)N[C@H](C(N)=O)[C@@H](C)O (some centres unmarked) [ALT-801, Pemvidutide]
ALT reduction ([1]; all subjects, 1.2 mg): −11.2% | ALT reduction ([1]; all subjects, 1.8 mg): −13.8% | ALT reduction ([1]; all subjects, 'the 1.8 mg dose' as printed (second mention)): −13.6% | ALT reduction ([1]; subjects with baseline ALT >=30 IU/L, 1.2 mg): −17.8% | ALT reduction ([1]; subjects with baseline ALT >=30 IU/L, 1.8 mg): −20.8% | ALT reduction ([1]; subjects with baseline ALT >=30 IU/L, 2.4 mg): −27% | decline in serum ALT levels ([1]; 2.4 mg dose cohort): 27.0 IU/L | decline in serum ALT levels ([1]; all dose levels): more than 17 IU/L | proportion of subjects showing >=80 ms for Iron-corrected T1 (cT1) (Iron-corrected T1 (cT1); 1.2 mg): 87.5% | proportion of subjects showing >=80 ms for Iron-corrected T1 (cT1) (Iron-corrected T1 (cT1); 1.8 mg): 83.3% | proportion of subjects showing >=80 ms for Iron-corrected T1 (cT1) (Iron-corrected T1 (cT1); 2.4 mg): 85.7%
